Measured values as given in patent publication US20140349943A1, “TOPICAL FORMULATIONS OF CHEMERIN C15 PEPTIDES FOR THE TREATMENT OF DERMATOLOGICAL CONDITIONS” (priority 2011, published 2014).
Peptide text beside a SMILES is read from it.

Assays:
Type in all cases: cell-based
mChemR23 = target: T1, mChemR23 (Mus musculus, UniProt P97468); experiment: PathHunter β-Arrestin assay, mouse ChemR23
T1 construct: host or cells: CHO (stated generally for the PathHunter assay)
T1 sequence (P97468 1-371): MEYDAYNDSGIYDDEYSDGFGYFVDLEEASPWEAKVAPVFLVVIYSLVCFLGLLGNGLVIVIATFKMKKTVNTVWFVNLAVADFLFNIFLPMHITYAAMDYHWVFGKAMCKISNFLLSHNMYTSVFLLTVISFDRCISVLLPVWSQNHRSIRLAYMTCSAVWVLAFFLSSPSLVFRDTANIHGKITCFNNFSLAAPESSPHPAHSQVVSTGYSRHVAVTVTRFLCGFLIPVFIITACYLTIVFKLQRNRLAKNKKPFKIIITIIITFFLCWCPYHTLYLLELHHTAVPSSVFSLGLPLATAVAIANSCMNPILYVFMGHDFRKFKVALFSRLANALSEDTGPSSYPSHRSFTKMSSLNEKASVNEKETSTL
Protocol: (§1) The DiscoveRx PathHunter™ eXpress GPCR activity assay was employed to test agonist and antagonist activities of the chemerin peptides against the GPCRs ChemR23 and GPR1. Two assay formats were tested, the PathHunter β-Arrestin assay and the Hit Hunter cAMP Hunter assay.
(§2) The PathHunter β-Arrestin assay monitors the activation of a GPCR in a homogenous, non-imaging assay format using a technology developed by DiscoveRx called complementation, which utilizes an enzyme fragment complementation (EFC) assay with β-galactosidase (β-Gal) as the functional reporter. The enzyme is split into two complementary portions expressed as fusion proteins in the cell. The Enzyme Acceptor (EA) is fused to β-Arrestin and the ProLink donor peptide is fused to the GPCR of interest. Upon GPCR stimulation, β-Arrestin is recruited to the receptor for desensitization, bringing the two fragments of β-Gal together and allowing complementation to occur.
(§3) The assay involves CHO cell lines that express 1) a GPCR of interest (e.g. ChemR23 or GPR1) that has a fragment of the βgal enzyme fused to the C-terminus of the receptor and 2) a β-arrestin fused to the main β-gal enzyme. When the agonist binds to the receptor, β-arrestin is recruited to the receptor and the β-gal enzyme is complemented by the fragment from the GPCR thus forming a functional β-gal enzyme. A substrate is then added and luminescence is generated to detect β-arrestin recruitment.
(§4) The protocol used was a standard protocol employed by DiscoveRx PathHunter™ profiling service. […] Once it was established that the cells were healthy and growing normally, cells were passaged from flasks using cell dissociation reagent and seeded into white walled clear bottom 384-well microplates for compound profiling. For profiling, cells were seeded at a density of 5000 cells per well in a total volume of 20 μL and were allowed to adhere and recover overnight prior to compound addition.
(§5) For the agonist assay, intermediate dilution of compound stocks were generated such that 5 μL of 5× compound could be added to each well with a final DMSO concentration of 1% of total volume. For profiling compound in agonist mode, the cells were incubated in the presence of compound at 37° C. for 90 minutes.
For the antagonist assay, agonist dose curves were performed the morning of profiling to determine the EC80 value for the following antagonist testing with compounds. 5 μL of 5× agonist (i.e. chemerin) was added to each well with an equal concentration of vehicle present. EC80 agonist concentration was determined directly from agonist dose curve. For antagonist determination, cells were preincubated with antagonist followed by agonist challenge at the EC80 concentration: 4. 5 μL of 5× compound added to cells and incubated at 37° C. for 30 minutes. 5. […]
(§6) Microplates were read following signal generation with a PerkinElmer Envision™ instrument for chemiluminescent signal detection
(§7) Dose curves in the presence and absence of compound were plotted using GraphPad Prism or Activity Base. For agonist mode assays, percentage activity was calculated using the following formula: % Activity=100%×(Mean RLU of test sample−mean RLU of vehicle control)/(mean MAX RLU control ligand−mean RLU of vehicle control)). For antagonist mode assays, percentage inhibition was calculated using the following formula: % Inhibition=100%×(1−(Mean RLU of test sample−mean RLU of vehicle control)/(mean RLU of EC80 control−mean RLU of vehicle control)).

GPR1 = target: T2, GPR1 (Homo sapiens, UniProt P46091); experiment: PathHunter β-Arrestin assay, GPR1, agonist and antagonist mode; details: for agonist activity, in words / Rank Order / % Max Activity / % Max Inhibition / antagonist activity, in words: GPR1; for agonist activity, in words: FIG. 2A/2B; for Rank Order: agonist; for % Max Activity: agonist mode; for % Max Inhibition: antagonist mode, chemerin at EC80; for antagonist activity, in words: chemerin at 80% maximum signal
T2 construct: host or cells: CHO
T2 sequence (P46091 1-355): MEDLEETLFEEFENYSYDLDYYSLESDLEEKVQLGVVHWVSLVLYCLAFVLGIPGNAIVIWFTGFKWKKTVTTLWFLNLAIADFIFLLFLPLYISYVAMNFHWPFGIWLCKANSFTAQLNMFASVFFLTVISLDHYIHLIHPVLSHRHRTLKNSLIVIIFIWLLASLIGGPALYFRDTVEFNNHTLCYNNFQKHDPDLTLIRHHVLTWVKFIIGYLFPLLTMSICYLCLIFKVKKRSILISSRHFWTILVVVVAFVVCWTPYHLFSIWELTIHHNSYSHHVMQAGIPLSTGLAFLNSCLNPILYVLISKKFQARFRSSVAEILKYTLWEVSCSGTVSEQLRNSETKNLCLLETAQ
Protocol: as §1, §2, §3, §4, §5
For the antagonist assay, agonist dose curves were performed the morning of profiling to determine the EC80 value for the following antagonist testing with compounds. 5 μL of 5× agonist (i.e. chemerin) was added to each well with an equal concentration of vehicle present. EC80 agonist concentration was determined directly from agonist dose curve. For antagonist determination, cells were preincubated with antagonist followed by agonist challenge at the EC80 concentration: 4. 5 μL of 5× compound added to cells and incubated at 37° C. for 30 minutes. 5. 5 μL of 6× EC80 agonist added to cells and incubated at 37° C. for 90 minutes.
as §6, §7

ChemR23 = target: T3, ChemR23 (Homo sapiens, UniProt Q99788); experiment: Hit Hunter cAMP Hunter assay, human ChemR23
T3 sequence (Q99788 1-373): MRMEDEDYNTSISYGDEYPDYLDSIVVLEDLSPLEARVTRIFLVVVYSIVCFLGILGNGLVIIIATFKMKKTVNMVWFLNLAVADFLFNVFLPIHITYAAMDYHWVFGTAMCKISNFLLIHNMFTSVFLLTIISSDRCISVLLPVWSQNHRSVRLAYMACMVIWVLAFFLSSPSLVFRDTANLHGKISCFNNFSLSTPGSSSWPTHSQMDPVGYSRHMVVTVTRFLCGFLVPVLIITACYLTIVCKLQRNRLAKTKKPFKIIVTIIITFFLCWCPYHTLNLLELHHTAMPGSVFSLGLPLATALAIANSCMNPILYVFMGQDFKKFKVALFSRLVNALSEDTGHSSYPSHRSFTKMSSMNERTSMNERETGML
Protocol: as §1
as §4, with “reagent buffer” for “reagent”, “10000” for “5000”, “addition. Cells were treated the following day using the protocols shown below. cAMP modulation was determined using the DiscoveRx HitHunter cAMP XS+ assay.” for “addition.”
For profiling compound in agonist mode, the cells were incubated in the presence of compound at 37° C. for 30 minutes.
EC80 agonist concentration was determined directly from agonist dose curve.
Microplates were read following signal generation with a PerkinElmer Envision™ instrument for chemiluminescent signal detection.
Dose curves in the presence and absence of compound were plotted using GraphPad Prism or Activity Base.

SMILES | EC50 (mChemR23) | IC50 (GPR1) | agonist activity, in words (GPR1) | Rank Order (GPR1) | % Max Activity (GPR1) | % Max Inhibition (GPR1) | antagonist activity, in words (GPR1) | IC50 (ChemR23) | IC50 (mChemR23)
C[C@H](N)C(=O)NCC(=O)N[C@@H](CCC(=O)O)C(=O)N[C@@H](CC(=O)O)C(=O)N1CCC[C@H]1C(=O)N[C@@H](Cc1c[nH]cn1)C(=O)N[C@@H](CO)C(=O)N[C@@H](Cc1ccccc1)C(=O)N[C@@H](Cc1ccc(O)cc1)C(=O)N[C@@H](Cc1ccccc1)C(=O)N1CCC[C@H]1C(=O)NCC(=O)N[C@@H](CCC(N)=O)C(=O)N[C@@H](Cc1ccccc1)C(=O)N[C@@H](C)C(=O)O [C15 (human)] (H-AGEDPHSFYFPGQFA-OH; N-terminus and C-terminus assumed) | > 10 µM | > 10 µM | neither human nor mouse chemerin C15 peptides acted as agonists | 3 | 10.6% | 0% | neither human nor mouse chemerin C15 peptides acted as antagonists | > 10 µM | 
C[C@H](N)C(=O)NCC(=O)N[C@@H](CCC(=O)O)C(=O)N[C@@H](CC(=O)O)C(=O)N1CCC[C@H]1C(=O)N[C@@H](Cc1c[nH]cn1)C(=O)N[C@@H](CO)C(=O)N[C@@H](Cc1ccccc1)C(=O)N[C@@H](Cc1ccc(O)cc1)C(=O)N[C@@H](Cc1ccccc1)C(=O)N1CCC[C@H]1C(=O)NCC(=O)N[C@@H](CCC(N)=O)C(=O)N[C@@H](Cc1ccccc1)C(=O)N[C@@H](C)C(=O)N[C@@H](Cc1ccccc1)C(=O)N[C@@H](CO)C(=O)O [C17 (human)] (H-AGEDPHSFYFPGQFAFS-OH; N-terminus and C-terminus assumed) |  | > 10 µM | exhibited agonist activity | 1 | 80.9% | 0% |  | > 10 µM | > 10 µM
CC(C)C[C@H](NC(=O)[C@H](Cc1ccccc1)NC(=O)[C@H](Cc1ccc(O)cc1)NC(=O)CNC(=O)[C@H](Cc1c[nH]cn1)NC(=O)[C@@H]1CCCN1C(=O)[C@H](CC(=O)O)NC(=O)[C@H](CCC(=O)O)NC(=O)CNC(=O)[C@H](C)N)C(=O)N1CCC[C@H]1C(=O)NCC(=O)N[C@@H](CCC(N)=O)C(=O)N[C@@H](Cc1ccccc1)C(=O)N[C@@H](C)C(=O)O [mC15] (H-AGEDPHGYFLPGQFA-OH; N-terminus and C-terminus assumed) |  | > 10 µM | neither human nor mouse chemerin C15 peptides acted as agonists | 4 | 27.8% | 0% | neither human nor mouse chemerin C15 peptides acted as antagonists | > 10 µM | > 10 µM
